Experimental data from ChEMBL document CHEMBL1137624, “Synthesis and characterization of pyrrolidine derivatives as potent agonists of the human melanocortin-4 receptor” (Bioorg Med Chem Lett, 2007).
The source made the active and inactive calls. The calls are words filed in the database; no cut-off is given here.

Assays:
Melanocortin receptor 4 [1] = target: T1, Melanocortin receptor 4 (Homo sapiens, UniProt P32245); experiment: Intrinsic activity at human MC4 receptor expressed in CHO cells assessed as cAMP accumulation relative to alpha-MSH; assay type: functional, cell-based
T1 sequence (P32245 whole entry): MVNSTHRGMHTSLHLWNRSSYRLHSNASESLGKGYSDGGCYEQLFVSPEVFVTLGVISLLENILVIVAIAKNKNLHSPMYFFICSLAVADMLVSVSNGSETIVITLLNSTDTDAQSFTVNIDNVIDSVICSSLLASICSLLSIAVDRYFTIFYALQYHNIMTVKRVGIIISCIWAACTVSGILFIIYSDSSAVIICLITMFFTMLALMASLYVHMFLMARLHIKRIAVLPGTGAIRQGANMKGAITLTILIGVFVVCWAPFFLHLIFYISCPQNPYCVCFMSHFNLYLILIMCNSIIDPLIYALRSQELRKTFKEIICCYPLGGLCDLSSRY

Melanocortin receptor 4 [2] = target: T1, Melanocortin receptor 4; experiment: Displacement of [125I]NDP-MSH from human MC4 receptor expressed in HEK293 cells; assay type: cell-based
Melanocortin receptor 4 [3] = target: T1, Melanocortin receptor 4; experiment: Antagonist activity at human MC4 receptor expressed in CHO cells assessed as inhibition of alpha-MSH-stimulated of cAMP production by ELISA; assay type: functional, cell-based
Rattus norvegicus [4] = experiment: Decrease in cumulative food intake in high-fat diet fed CD rat at 5 mg/kg, ip after 1 to 6 hrs; assay type: functional, organism-based; set-up: dose 5 mg/kg
[5] = Oral bioavailability in rat at 10 mg/kg, po; assay type: ADME, organism-based; settings: in vivo
[6] = Cmax in rat at 10 mg/kg, po after 3 hrs; assay type: ADME, organism-based; set-up: dose 10 mg/kg, route oral; settings: in vivo
[7] = Apparent permeability across apical to basolateral side of Caco-2 cells; assay type: ADME, cell-based; settings: human
Melanocortin receptor 5 = Melanocortin receptor 5 (Homo sapiens, UniProt P33032); experiment: Binding affinity at human MC5 receptor
Sequence of Melanocortin receptor 5 (P33032 whole entry): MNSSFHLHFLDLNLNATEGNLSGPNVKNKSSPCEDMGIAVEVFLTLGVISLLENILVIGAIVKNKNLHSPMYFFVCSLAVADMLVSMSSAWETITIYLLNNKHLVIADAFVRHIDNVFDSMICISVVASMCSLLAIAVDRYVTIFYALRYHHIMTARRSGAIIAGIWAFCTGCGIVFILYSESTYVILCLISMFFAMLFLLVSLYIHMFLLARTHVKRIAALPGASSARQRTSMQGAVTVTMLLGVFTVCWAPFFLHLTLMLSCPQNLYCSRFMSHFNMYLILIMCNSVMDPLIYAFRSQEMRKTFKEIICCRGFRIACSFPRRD

[8] = Volume of distribution in rat at 2.5 mg/kg, iv; assay type: ADME, organism-based; set-up: dose 2.5 mg/kg, route intravenous; settings: in vivo
[9] = Concentration in rat brain at 2.5 mg/kg, iv after 4 hrs; assay type: ADME, organism-based; set-up: dose 2.5 mg/kg, route intravenous; settings: read-out: Drug uptake
[10] = target: T2, Melanocyte-stimulating hormone receptor (Homo sapiens, UniProt Q01726); experiment: Binding affinity at human MC1 receptor
Target sequence in this assay (Q01726 whole entry): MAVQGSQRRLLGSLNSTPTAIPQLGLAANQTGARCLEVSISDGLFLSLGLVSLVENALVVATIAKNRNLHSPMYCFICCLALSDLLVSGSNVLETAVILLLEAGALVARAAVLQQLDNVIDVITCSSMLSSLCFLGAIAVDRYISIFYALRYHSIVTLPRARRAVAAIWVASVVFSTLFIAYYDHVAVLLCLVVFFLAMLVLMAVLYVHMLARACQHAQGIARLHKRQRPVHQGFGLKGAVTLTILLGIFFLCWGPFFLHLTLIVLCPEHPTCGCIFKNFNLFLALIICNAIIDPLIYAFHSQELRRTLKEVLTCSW

[11] = Distribution coefficient, log D by shake flake method; assay type: physicochemical; settings: octanol/water
[12] = Plasma clearance in rat at 2.5 mg/kg, iv; assay type: ADME, organism-based; set-up: dose 2.5 mg/kg, route intravenous
[13] = Ratio of drug level in brain to plasma in rat at 2.5 mg/kg, iv; assay type: ADME, organism-based; set-up: dose 2.5 mg/kg, route intravenous; settings: read-out: BPR
Melanocortin receptor 3 = Melanocortin receptor 3 (Homo sapiens, UniProt P41968); experiment: Binding affinity at human MC3 receptor
Sequence of Melanocortin receptor 3 (P41968 whole entry): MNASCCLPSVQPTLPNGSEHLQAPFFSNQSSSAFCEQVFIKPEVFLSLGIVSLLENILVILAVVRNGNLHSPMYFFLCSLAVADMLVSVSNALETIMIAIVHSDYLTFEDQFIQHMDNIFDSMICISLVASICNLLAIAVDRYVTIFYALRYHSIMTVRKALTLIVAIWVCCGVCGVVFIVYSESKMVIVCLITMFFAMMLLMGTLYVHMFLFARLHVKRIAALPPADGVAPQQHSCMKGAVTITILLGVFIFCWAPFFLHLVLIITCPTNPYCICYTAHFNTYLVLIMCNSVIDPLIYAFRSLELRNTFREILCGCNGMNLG

[14] = Concentration in rat brain at 2.5 mg/kg, iv after 1 hr; assay type: ADME, organism-based; set-up: dose 2.5 mg/kg, route intravenous; settings: read-out: Drug uptake
[15] = AUC in rat at 10 mg/kg, po; assay type: ADME, organism-based; set-up: dose 10 mg/kg, route oral; settings: plasma
Rattus norvegicus [16] = experiment: Decrease in cumulative food intake in high-fat diet fed CD rat at 30 mg/kg, ip after 1 to 6 hrs; assay type: functional, organism-based; set-up: dose 30 mg/kg
Caco-2 = experiment: Ratio of permeability from […] side of Caco-2 cells; assay type: ADME, cell-based; settings: human
[17] = Half life in rat at 2.5 mg/kg, iv; assay type: ADME, organism-based; set-up: dose 2.5 mg/kg, route intravenous; settings: in vivo
Rattus norvegicus [18] = organism: Rattus norvegicus; experiment: Decrease in cumulative food intake in high-fat diet fed CD rat after 24 hrs; assay type: functional, organism-based
Melanocortin receptor 4 [19] = target: T1, Melanocortin receptor 4; experiment: Agonist activity at human MC4 receptor expressed in CHO cells assessed as cAMP accumulation by ELISA; assay type: functional, cell-based
[20] = target: T2, Melanocyte-stimulating hormone receptor; experiment: Binding affinity at human MC1 receptor at 10 uM
Target sequence in this assay (Q01726 whole entry, looked up): as the sequence (Q01726 whole entry) above

Cc1ccc(N2CCN(C(=O)[C@@H]3CN(C4CCN(CC(C)C)CC4)C[C@H]3c3ccc(Cl)cc3)CC2)c([C@@H](N)C(C)C)c1
Intrinsic activity (Melanocortin receptor 4 [1]): 1%
Ki (Melanocortin receptor 4 [2]): 0.0054 µM
IC50 (Melanocortin receptor 4 [3]): 1.8 µM

CCNC(C)Cc1cccc(C(F)(F)F)c1 (centres undefined)
Activity (Rattus norvegicus [4]): Active

Cc1ccc(N2CCN(C(=O)[C@@H]3CN(C4CCOCC4)C[C@H]3c3ccc(Cl)cc3)CC2)c([C@@H](N)C(C)C)c1
bioavailability [5]: 22%
Cmax [6]: 0.016 µg/mL
Papp A→B [7]: 8 nm/s
Ki (Melanocortin receptor 5): 0.24 µM
Vd [8]: 270 L/kg
concentration at 4 h [9]: 32 ng/g
Ki [10]: 3.35 µM
logD [11]: 1.8
clearance [12]: 7.08 L/h/kg
Kp [13]: 0.7
Ki (Melanocortin receptor 3): 1.6 µM
concentration at 1 h [14]: 5 ng/g
Intrinsic activity (Melanocortin receptor 4 [1]): 105%
AUC [15]: 0.154 µg·h/mL
Ki (Melanocortin receptor 4 [2]): 0.011 µM
Activity (Rattus norvegicus [16]): Active
Ratio (Caco-2): 25
half-life [17]: 27 h
Activity (Rattus norvegicus [18]): Dose-dependent effect
EC50 (Melanocortin receptor 4 [19]): 0.024 µM

Cc1ccc(N2CCN(C(=O)[C@H]3CN(C4CCOCC4)C[C@@H]3c3ccc(Cl)cc3)CC2)c([C@@H](N)C(C)C)c1
inhibition [20]: 33%
Ki (Melanocortin receptor 5): 0.38 µM
Ki (Melanocortin receptor 3): 1.4 µM
Intrinsic activity (Melanocortin receptor 4 [1]): 18%
Ki (Melanocortin receptor 4 [2]): 0.0086 µM
IC50 (Melanocortin receptor 4 [3]): 0.065 µM

CC(C)C[C@H](N)c1cc(C(F)(F)F)ccc1N1CCN(C(=O)[C@@H]2CN(Cc3ccccc3)C[C@H]2c2ccc(Cl)cc2)CC1
Intrinsic activity (Melanocortin receptor 4 [1]): 52%
Ki (Melanocortin receptor 4 [2]): 0.12 µM
EC50 (Melanocortin receptor 4 [19]): 7.3 µM

CC(C)CN1C[C@@H](C(=O)N2CCN(c3c(F)cccc3[C@@H](N)C(C)C)CC2)[C@H](c2ccc(Cl)cc2)C1
Intrinsic activity (Melanocortin receptor 4 [1]): 52%
Ki (Melanocortin receptor 4 [2]): 0.043 µM
EC50 (Melanocortin receptor 4 [19]): 1.4 µM

COc1ccc([C@@H]2CN(C(C)C)C[C@H]2C(=O)N2CCN(c3ccc(C(F)(F)F)cc3[C@@H](N)CC(C)C)CC2)cc1
Intrinsic activity (Melanocortin receptor 4 [1]): 67%
Ki (Melanocortin receptor 4 [2]): 0.067 µM
EC50 (Melanocortin receptor 4 [19]): 0.45 µM
